Measurements taken from patent US8673268B2, “Molecular targets and compounds, and methods to identify the same, useful in the treatment of joint degenerative and inflammatory diseases” (Galapagos N.V., priority 2004, dated 2014).

Legend:
TIMP-2 secretion by SFs = assay: TIMP-2 secretion ELISA; type: cell-based, human
Protocol: The secretion of TIMP-2 by SFs is determined to eliminate the factor of general suppression of SF secretory activity by the Ad-siRNAs as the cause of reduced expression of MMP1 in the reverse MMP1 assay. TIMP-2 is a protein that SFs express and secret constitutively. Secretion of TIMP-2 into the SF supernatant is blocked by the addition of BrefeldinA, a small molecule inhibitor of secretion. The level of SF TIMP-2 protein secretion is detected by ELISA. RASF cells are seeded in 96-well gelatin coated plates at 3000 cells/well in 100 μl synovial growth medium. After overnight incubation, cells are infected and incubated for 5 days at 37° C. in a 10% CO2 incubator. […] TIMP2 levels are determined by a standard ELISA assay, essentially as outlined for the MMP1 ELISA. […] After 5 minutes incubation at room temperature in the dark, luminescence is quantified on a luminometer (Luminoscan Ascent).
The procedure described above (plate layout, MOI, method for determination of the cutoff) applied for these experiments is identical to the one described for the toxicity measurements (i.e., a primary test with 12 μl infection volume and a retest with 3, 6, 12 μl infection volumes) differing only in that the cutoff applied in the primary test is determined as the average over all samples minus 2 times standard deviation over all samples. […]

[1] = test system: MMP1 expression by synovial fibroblasts (SFs); assay: reverse MMP1 assay: MMP1 ELISA on supernatant of SFs activated with TNFα-based trigger; type: cell-based; settings: Homo sapiens, Fibroblast, supernatant collected 48 hours after trigger, FIG. 5, read-out: IC50 for reduction of TNF-based trigger-induced MMP1 expression by SFs
Protocol: A 384-well format ELISA for measurement of MMP1 is developed. Various primary antibodies are tested, as well as various ELISA protocols. The following protocol is developed and validated to measure MMP1 levels in SF supernatant in 384 well plates: white Lumitrac 600 384 well plates (Greiner) are coated with 2 μg/ml anti-MMP1 antibody MAB1346 (Chemicon). The antibody is diluted in buffer 40 (1.21 g Tris base (Sigma), 0.58 g NaCl (Calbiochem) and 5 ml 10% NaN3 (Sigma) in 1 L milliQ water and adjusted to pH 8.5). After overnight incubation at 4° C., plates are washed with PBS (80 g NaCl, 2 g KCl (Sigma), 11.5 g Na2HPO4.7H2O and 2 g KH2PO4 in 10 L milliQ; pH 7.4) and blocked with 100 μl/well Casein buffer (2% Casein (VWR International) in PBS). Next day, casein buffer is removed from ELISA plates and replaced by 50 μl/well EC buffer (4 g casein, 2.13 g Na2HPO4 (Sigma), 2 g bovine albumin (Sigma), 0.69 g NaH2PO4.H2O (Sigma), 0.5 g CHAPS (Roche), 23.3 g NaCl, 4 ml 0.5 M EDTA pH 8 (Invitrogen), 5 ml 10% NaN3 in 1 L milliQ and adjusted to pH 7.0). 0.25 mM DTT (Sigma) are added to the thawed samples plates. After removal of the EC buffer, 20 μl of sample are transferred to the ELISA plates. […] Readout is performed on the Luminoscan Ascent Luminometer (Labsystems) with an integration time of 200 msec or with an Envision reader (Perkin Elmer). […]

rheumatoid arthritis = settings: RA patients, after 24 months treatment; cited from earlier work

## C[C@H]1CCC/C=C/[C@@H]2C[C@H](O)C[C@H]2[C@H](O)/C=C/C(=O)O1 [BrefeldinA]
TIMP-2 secretion by SFs
  secretion of TIMP-2 into the SF supernatant: blocked

## C[C@@H]1C[C@H]2[C@@H]3CCC4=CC(=O)C=C[C@]4(C)[C@@]3(F)[C@@H](O)C[C@]2(C)[C@@]1(O)C(=O)CO [dexamethasone]
[1]
  IC50: ~1 nM

## CN(Cc1cnc2nc(N)nc(N)c2n1)c1ccc(C(=O)N[C@@H](CCC(=O)O)C(=O)O)cc1 [methotrexate]
Rheumatoid arthritis
  patients achieving an ACR50 score: 30%
